Results published in patent US11873291B2, “Quinoline cGAS antagonist compounds” (ImmuneSensor Therapeutics, Inc., priority 2020, dated 2024).

Each compound was assayed against T1, recombinant human cGAS (aa147-522) (Homo sapiens, UniProt Q8N884) (assay: In vitro inhibition assay of cGAS activity (ATP consumption, KinaseGlo Max)). Details: Table 2, read-out: cGAS Inhibition Results IC50.
T1 construct: recombinant human cGAS (aa147-522); His6-SUMO (cleaved yes); made in house; host or cells: E. coli BL21/pLys
T1 sequence (Q8N884 147-522): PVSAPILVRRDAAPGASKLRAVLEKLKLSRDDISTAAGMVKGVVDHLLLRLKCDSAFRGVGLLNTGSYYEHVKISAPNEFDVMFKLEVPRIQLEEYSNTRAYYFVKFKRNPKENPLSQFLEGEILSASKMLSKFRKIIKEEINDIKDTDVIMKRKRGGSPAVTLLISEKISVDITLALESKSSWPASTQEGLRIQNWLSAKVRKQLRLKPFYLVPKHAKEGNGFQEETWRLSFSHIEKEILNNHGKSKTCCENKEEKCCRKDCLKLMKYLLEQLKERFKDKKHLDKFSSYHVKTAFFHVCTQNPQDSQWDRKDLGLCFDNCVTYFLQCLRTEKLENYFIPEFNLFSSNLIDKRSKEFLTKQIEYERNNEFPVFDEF
Format: biochemical
Procedure, shortened: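 IC50 came from plotting % ATP consumption against log compound concentration, with leftover ATP detected by KinaseGlo Max chemiluminescence. Reactions ran 20 min at 37 °C with 1.5 μg/mL human cGAS (aa147-522), 6.6 μM ATP, 0.1 mM GTP and 0.01 mg/mL DNA at pH 7.5.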

Structure (SMILES)	IC50 [nM]
OCCNc1cc(-c2cn[nH]c2)nc2c(Cl)c(Cl)ccc12 [I-289, 2-((7,8-dichloro-2-(1H-pyrazol-4-yl)quinolin-4-yl)amino)ethan-1-ol]	2000 to 30000
O=C1CC[C@@H](CO)N1c1cc(-n2ccnc2)c2ccc(Cl)c(Cl)c2n1 [I-376]	> 30000
NS(=O)(=O)CCNc1cc(-c2cn[nH]c2)c2c(Cl)c(Cl)ccc2n1 [I-261]	> 30000
O=C(O)c1cc(-c2cc(-n3ccnc3)c3ccc(Cl)cc3n2)ccc1OCCO [I-21, 5-(7-chloro-4-(1H-imidazol-1-yl)quinolin-2-yl)-2-(2-hydroxyethoxy)benzoic acid]	< 2000
OCC(CO)Nc1cc(-n2ccnc2)c2ccc(Cl)c(Cl)c2n1 [I-249]	< 2000
Clc1ccc2c(Cl)cc(-c3cn[nH]c3)nc2c1Cl [I-404, 4,7,8-trichloro-2-(1H-pyrazol-4-yl)quinoline]	> 30000
Cc1cc(NCCS(N)(=O)=O)c2ccc(Cl)c(Cl)c2n1 [I-308]	> 30000
O=C(O)c1cc2c(c(-c3cc(-n4ccnc4)c4ccc(Cl)cc4n3)c1)OCO2 [I-37]	> 30000
Brc1ccc2c(-n3ccnc3)cc(-c3cccs3)nc2c1 [I-380, 7-bromo-4-(1H-imidazol-1-yl)-2-(thiophen-2-yl)quinoline]	2000 to 30000
NC(=O)C1CN(c2cc(-c3cn[nH]c3)c3ccc(Cl)c(Cl)c3n2)CCO1 (centres unmarked) [I-371]	< 2000
CC(=O)N[C@@H]1C[C@@H](C(=O)O)N(c2cc(-n3ccnc3)c3ccc(Cl)c(Cl)c3n2)C1 [I-347]	< 2000
O=C(O)C1(O)CCCN(c2cc(-n3ccnc3)c3ccc(Cl)c(Cl)c3n2)C1 (centres unmarked) [I-124]	< 2000
Cc1cc(N2CCCC(O)CC2)c2ccc(Cl)c(Cl)c2n1 (centres unmarked) [I-311]	> 30000
O=C(O)/C=C/c1cc(-c2cn[nH]c2)c2ccc(Cl)c(Cl)c2n1 [I-423, 3-(7,8-dichloro-4-(1H-pyrazol-4-yl)quinolin-2-yl)acrylic acid]	< 2000
OC[C@@H]1CN(c2cc(-c3cn[nH]c3)c3ccc(Cl)c(Cl)c3n2)CCO1 [I-372]	< 2000
Nc1cc(C(=O)O)cc(-c2cc(-n3ccnc3)c3ccc(Cl)cc3n2)c1 [I-22, 3-amino-5-(7-chloro-4-(1H-imidazol-1-yl)quinolin-2-yl)benzoic acid]	< 2000
O=S(=O)(O)CCNc1cc(-n2ccnc2)c2ccc(Cl)c(Cl)c2n1 [I-158]	< 2000
Cc1ccc(-c2cc(-n3ccnc3)c3ccc(Br)cc3n2)cc1 [I-385]	2000 to 30000
CN(CCNS(=O)(=O)c1cccnc1)c1cc(-n2ccnc2)c2ccc(Cl)cc2n1 [I-231]	2000 to 30000

Structure (SMILES)	IC50 [nM]
C[C@@H](CO)N(C)c1cc(-n2ccnc2)c2ccc(Cl)c(Cl)c2n1 [I-241]	< 2000
CNS(=O)(=O)CCN(C)c1cc(-n2ccnc2)c2ccc(Cl)c(Cl)c2n1 [I-205]	< 2000
O=C(O)C1CC(O)CN(c2cc(-n3ccnc3)c3ccc(Cl)cc3n2)C1 (centres unmarked) [I-135]	> 30000
O=C(O)[C@H]1CCCN1c1cc(-n2ccnc2)c2ccc(Cl)c(Cl)c2n1 [I-374]	< 2000
O=C(O)c1cncc(-c2cc(-n3ccnc3)c3ccc(Cl)cc3n2)c1 [I-32]	< 2000
Oc1ccc(-c2cc(-n3ccnc3)c3ccc(Cl)c(Cl)c3n2)cc1 [I-47]	< 2000
Clc1ccc2c(-n3ccnc3)cc(-c3ccc4nn[nH]c4c3)nc2c1 [I-35]	2000 to 30000
CS(=O)(=O)N(CCCc1cc(-c2cn[nH]c2)c2ccc(Cl)c(Cl)c2n1)CC(=O)O [I-337, N-(3-(7,8-dichloro-4-(1H-pyrazol-4-yl)quinolin-2-yl)propyl)-N-(methylsulfonyl) glycine]	< 2000
O=C(O)Cc1cccc(-c2cc(-n3ccnc3)c3ccc(Cl)cc3n2)c1 [I-9]	> 30000
COc1ccc(C(=O)O)cc1-c1cc(-n2ccnc2)c2ccc(Cl)cc2n1 [I-30]	2000 to 30000
O=[PH](O)OC1CCCN(c2cc(-n3ccnc3)c3ccc(Cl)c(Cl)c3n2)C1 (centres unmarked) [I-111, 1-(7,8-dichloro-4-(1H-imidazol-1-yl)quinolin-2-yl)piperidin-3-yl hydrogen phosphonate]	< 2000
Clc1ccc2c(-n3ccnc3)cc(N3CCNCC3)nc2c1 [I-76, 7-chloro-4-(1H-imidazol-1-yl)-2-(piperazin-1-yl)quinoline]	2000 to 30000
Cc1cc(-c2ccn[nH]2)c2ccc(Cl)c(Cl)c2n1 [I-407]	> 30000
COc1ccc2c(-c3cn[nH]c3)cc(NCCO)nc2c1 [I-377]	> 30000
O=C(N[C@@H]1C[C@@H](C(=O)O)N(c2cc(-n3ccnc3)c3ccc(Cl)c(Cl)c3n2)C1)c1ccccc1 [I-350]	< 2000
Clc1ccc2c(-c3cn[nH]c3)cc(N(CCN3CCOCC3)Cc3ccccc3)nc2c1Cl [I-216]	2000 to 30000
O=C(CO)N1CCN(c2cc(-n3ccnc3)c3ccc(Cl)cc3n2)CC1 [I-77, 1-(4-(7-chloro-4-(1H-imidazol-1-yl)quinolin-2-yl)piperazin-1-yl)-2-hydroxyethan-1-one]	> 30000
CC(C)(C)O[C@@H]1C[C@@H](C(=O)O)N(c2cc(-c3cn[nH]c3)c3ccc(Cl)c(Cl)c3n2)C1 [I-437]	< 2000

Same assay, conditions: Table 3, read-out: cGAS Inhibition Results IC50

Structure (SMILES)	IC50 [nM]
COC(=O)C[C@@H]1CCCN1c1cc(-n2ccnc2)c2ccc(Cl)c(Cl)c2c1 [I-572, methyl (S)-2-(1-(7,8-dichloro-4-(1H-imidazol-1-yl)naphthalen-2-yl)pyrrolidin-2-yl)acetate]	< 2000
COC(=O)CCN(CCC(=O)OC)C[C@@H]1CCCN1c1cc(-n2ccnc2)c2ccc(Cl)c(Cl)c2n1 [I-757, dimethyl 3,3′-(((1-(7,8-dichloro-4-(1H-imidazol-1-yl)quinolin-2-yl)pyrrolidin-2-yl)methyl)azanediyl)(S)-dipropionate]	2000 to 30000
CN(CCNS(=O)(=O)CCC(=O)O)c1cc(-n2ccnc2)c2ccc(Cl)c(Cl)c2n1 [I-617]	< 2000
COC(=O)[C@@H]1c2ccccc2CN1c1cc(-n2ccnc2)c2ccc(Cl)c(Cl)c2n1 [I-588]	< 2000
O=C(O)c1ccc(C2CCCN2c2cc(-n3ccnc3)c3ccc(Cl)c(Cl)c3n2)s1 (centres unmarked) [I-468]	2000 to 30000
COC(=O)[C@H]1[C@@H](O)CCN1c1cc(-n2ccnc2)c2ccc(Cl)c(Cl)c2n1 [I-500]	2000 to 30000
CN(CCS(=O)(=O)N1CCCC1C(=O)O)c1cc(-n2ccnc2)c2ccc(Cl)c(Cl)c2n1 (centres unmarked) [I-626]	< 2000
O=C(O)[C@@H]1CN(c2cc(-n3ccnc3)c3ccc(Cl)c(Cl)c3n2)CCO1 [I-521]	< 2000
O=C(O)C12CC(CN1c1cc(-n3ccnc3)c3ccc(Cl)c(Cl)c3n1)C2 [I-474]	2000 to 30000
O=C(O)c1ccccc1S(=O)(=O)N[C@@H]1C[C@@H](C(=O)O)N(c2cc(-n3ccnc3)c3ccc(Cl)c(Cl)c3n2)C1 [I-509]	< 2000
CC1(C)CCN(c2cc(-n3ccnc3)c3ccc(Cl)c(Cl)c3n2)C1C(=O)O (centres unmarked) [I-483]	2000 to 30000
CN(CCNC(=O)CO)c1cc(-n2ccnc2)c2ccc(Cl)c(Cl)c2n1 [I-613]	< 2000
CC(C)[C@H](NC(=O)C[C@@H]1CCCN1c1cc(-n2ccnc2)c2ccc(Cl)c(Cl)c2n1)C(=O)O [I-526]	< 2000
O[C@@H]1CN(c2cc(-n3ccnc3)c3ccc(Cl)c(Cl)c3n2)C[C@H]1O [I-501]	< 2000
COC(=O)C1CCCN(C(=O)C[C@@H]2CCCN2c2cc(-n3ccnc3)c3ccc(Cl)c(Cl)c3n2)C1 (some centres unmarked) [I-535]	2000 to 30000
COC(=O)[C@@H]1Cc2ccccc2N1c1cc(-n2ccnc2)c2ccc(Cl)c(Cl)c2n1 [I-581]	2000 to 30000

Structure (SMILES)	IC50 [nM]
COC(=O)C1=CCCN1c1cc(-n2ccnc2)c2ccc(Cl)c(Cl)c2n1 [I-652, methyl 1-(7,8-dichloro-4-(1H-imidazol-1-yl)quinolin-2-yl)-4,5-dihydro-1H-pyrrole-2-carboxylate]	2000 to 30000
CN(CCC(=O)NCCS(N)(=O)=O)c1cc(-n2ccnc2)c2ccc(Cl)c(Cl)c2n1 [I-567]	< 2000
O=C(NC12CC(C(=O)O)(C1)C2)[C@@H]1CCCN1c1cc(-n2ccnc2)c2ccc(Cl)c(Cl)c2n1 [I-551]	> 30000
OC[C@@H]1CCN1c1cc(-n2ccnc2)c2ccc(Cl)c(Cl)c2n1 [I-659]	< 2000
O=C(O)C1CCN(C(=O)C[C@@H]2CCCN2c2cc(-n3ccnc3)c3ccc(Cl)c(Cl)c3n2)CC1 [I-529]	< 2000
O=C(O)c1ccc(S(=O)(=O)NC[C@@H]2CCCN2c2cc(-n3ccnc3)c3ccc(Cl)c(Cl)c3n2)cc1 [I-640]	< 2000
O=C(O)C1CCCN(C(=O)[C@@H]2CCCN2c2cc(-n3ccnc3)c3ccc(Cl)c(Cl)c3n2)C1 (some centres unmarked) [I-546]	2000 to 30000
O=P(O)(O)CCOC[C@@H]1CCCN1c1cc(-n2ccnc2)c2ccc(Cl)c(Cl)c2n1 [I-763, (S)-(2-((1-(7,8-dichloro-4-(1H-imidazol-1-yl)quinolin-2-yl)pyrrolidin-2-yl)methoxy)ethyl)phosphonic acid]	< 2000
COC(=O)[C@@H]1[C@@H](C)CCN1c1cc(-n2ccnc2)c2ccc(Cl)c(Cl)c2n1 [I-590]	2000 to 30000
O=C(O)[C@@H]1C[C@H](C(F)(F)F)CN1c1cc(-n2ccnc2)c2ccc(Cl)c(Cl)c2n1 [I-508]	< 2000
O=C1CC2CCC(C1)N2c1cc(-n2ccnc2)c2ccc(Cl)c(Cl)c2n1 [I-488]	< 2000
O=C(O)CNC(=O)O[C@H]1C[C@@H](C(=O)O)N(c2cc(-n3ccnc3)c3ccc(Cl)c(Cl)c3c2)C1 [I-570, (2S,4S)-4-(((carboxymethyl)carbamoyl)oxy)-1-(7,8-dichloro-4-(1H-imidazol-1-yl)naphthalen-2-yl)pyrrolidine-2-carboxylic acid]	2000 to 30000
CN(CCN(CC(=O)O)S(C)(=O)=O)c1cc(-n2ccnc2)c2ccc(Cl)c(Cl)c2n1 [I-635, N-(2-((7,8-dichloro-4-(1H-imidazol-1-yl)quinolin-2-yl)(methyl)amino)ethyl)-N-(methylsulfonyl)glycine]	< 2000
OC1CC2CCC(C1)N2c1cc(-n2ccnc2)c2ccc(Cl)c(Cl)c2n1 (centres unmarked) [I-490]	< 2000
NC(=O)CNC(=O)[C@@H]1CCCN1c1cc(-n2ccnc2)c2ccc(Cl)c(Cl)c2n1 [I-608]	2000 to 30000
